Experiment [1] deals with T1, Human CB1 receptor (hCB1) (Homo sapiens, UniProt P21554).
T1 construct: purchased Receptor Biology
Briefly: hCB1 receptor binding (3H-CP55,940 displacement). Particulars: hCB1 membranes, Ki=IC50/(1+[rad]/Kd). The gist of the method:
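Human CB1 membranes in Tris buffer pH 7.4 with 2.5 mM EDTA, 5 mM MgCl2 and 0.5 mg/mL fatty-acid-free BSA, incubated 60 min at room temperature with [3H]CP55,940.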

Experiment [2] has as its target T1, Human CB1 receptor (hCB1). Briefly: hCB1 GTPγS binding. The experiment is classed as biochemical. Conditions: for EC50: hCB1 membranes, GTPγ35S, 10-point dose-response; for Emax: maximal stimulated binding determined with 10 μM Win 55,212-2. The gist of the method: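 Human CB1 membranes in 50 mM Hepes, 100 mM NaCl, 1 mM EDTA, 5 mM MgCl2, 0.1% BSA, pH 7.4 were preincubated 5 min with GDP (30 μM final). Basal and maximal binding were defined without or with 10 μM Win 55,212-2; incubation 60 min RT; filter-bound radioactivity counted. Antagonist reversal used fixed antagonist with agonist curve, or fixed agonist with antagonist curve.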
For orientation: Binding of GTPγS marks nucleotide exchange on a G protein.

Data on 8 molecules can be found in patent US20090062251A1, “Novel Compounds 002” (ASTRAZENECA AB, priority 2007, published 2009).

T1 sequence (P21554 whole entry): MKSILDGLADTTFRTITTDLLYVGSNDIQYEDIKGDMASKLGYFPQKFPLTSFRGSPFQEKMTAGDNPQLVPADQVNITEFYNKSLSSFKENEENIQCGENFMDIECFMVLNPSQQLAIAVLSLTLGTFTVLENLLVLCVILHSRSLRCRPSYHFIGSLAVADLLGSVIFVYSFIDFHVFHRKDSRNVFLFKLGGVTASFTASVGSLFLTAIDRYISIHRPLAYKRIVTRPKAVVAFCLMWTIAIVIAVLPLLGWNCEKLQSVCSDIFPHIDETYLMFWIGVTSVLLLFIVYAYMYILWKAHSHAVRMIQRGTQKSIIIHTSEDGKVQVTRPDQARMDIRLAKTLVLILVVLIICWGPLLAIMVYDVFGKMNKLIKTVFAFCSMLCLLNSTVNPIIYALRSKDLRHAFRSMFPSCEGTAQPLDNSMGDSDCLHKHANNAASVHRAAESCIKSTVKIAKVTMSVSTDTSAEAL

The Ki is a measure of affinity in units of concentration, obtained from inhibition or displacement. High values mean a looser hold on the target, low ones a stronger hold on the target. As usually defined, the EC50 is the concentration needed to bring the measured effect to its halfway point. What is called Emax is the size of the effect at its maximum, as opposed to the concentration needed. `CCN(CC(=O)NCCOC)C(=O)c1ccc2c(c1)c1c(n2C)CCC(C2CCOCC2)C1` (stereo not drawn) [N-ethyl-N-(2-methoxyethylcarbamoylmethyl)-9-methyl-6-(oxan-4-yl)-5,6,7,8-tetrahydrocarbazole-3-carboxamide] came in with a Ki in experiment [1] of 0.219 µM. In addition, in experiment [2], the EC50 worked out at 0.457 µM and the Emax worked out at 113%.

`CCN(CCCCO)C(=O)c1ccc2c(c1)c1c(n2C)CCC(C2CCOCC2)C1` (stereo not drawn) [N-ethyl-N-(4-hydroxybutyl)-9-methyl-6-(oxan-4-yl)-5,6,7,8-tetrahydrocarbazole-3-carboxamide] displayed a Ki in experiment [1] of 0.0723 µM. In experiment [2], this molecule displayed an EC50 of 0.275 µM and an Emax of 122%.

Molecule `CCNC(=O)CN(CC)C(=O)c1ccc2c(c1)c1c(n2CCF)CCC(C2CCOCC2)C1` (stereo not drawn) [N-ethyl-N-(ethylcarbamoylmethyl)-9-(2-fluoroethyl)-6-(oxan-4-yl)-5,6,7,8-tetrahydrocarbazole-3-carboxamide] registered a Ki in experiment [1] of 0.202 µM. Further, in experiment [2], it took 0.438 µM to reach a half-maximal effect (EC50) and the Emax stood at 109%.

Turning to `CCNC(=O)CN(CC)C(=O)c1ccc2c(c1)c1c(n2C)CCC(C2CCOCC2)C1` (stereo not drawn) [N-ethyl-N-(ethylcarbamoylmethyl)-9-methyl-6-(oxan-4-yl)-5,6,7,8-tetrahydrocarbazole-3-carboxamide], affinity in experiment [1] was put at a Ki of 0.0174 µM. In experiment [2], the EC50 amounted to 0.0331 µM and the Emax amounted to 121%.

In experiment [1], `CCNC(=O)CN(CC)C(=O)c1ccc2c(c1)c1c(n2C(=O)N(C)C)CCC(C2CCOCC2)C1` (stereo not drawn) [N-ethyl-N-(ethylcarbamoylmethyl)-N′,N′-dimethyl-6-(oxan-4-yl)-5,6,7,8-tetrahydrocarbazole-3,9-dicarboxamide] returned a Ki greater than 3.48 µM. In experiment [2], the EC50 is greater than 30 µM and the maximal response (Emax) is greater than 42%.

Molecule `CCN(CCCC(=O)NCCF)C(=O)c1ccc2c(c1)c1c(n2C)CCC(C2CCOCC2)C1` (stereo not drawn) [N-ethyl-N-[3-(2-fluoroethylcarbamoyl)propyl]-9-methyl-6-(oxan-4-yl)-5,6,7,8-tetrahydrocarbazole-3-carboxamide] had a Ki in experiment [1] of 0.0101 µM. In experiment [2], a half-maximal response (EC50) required 0.0092 µM and the Emax worked out at 135%.

Take `CCN(CC(=O)NC[C@@H](C)O)C(=O)c1ccc2c(c1)c1c(n2C)CCC(C2CCOCC2)C1` (stereo partly drawn) [N-ethyl-N-[[(2R)-2-hydroxypropyl]carbamoylmethyl]-9-methyl-6-(oxan-4-yl)-5,6,7,8-tetrahydrocarbazole-3-carboxamide]: affinity in experiment [1] was put at a Ki of 0.182 µM. Moreover, in experiment [2], it took 0.318 µM to reach a half-maximal effect (EC50) and the Emax was found to be 124%.

`CCS(=O)(=O)n1c2c(c3cc(C(=O)N4CCC(O)CC4)ccc31)CC(C1CCOCC1)CC2` (stereo not drawn) [[9-ethylsulfonyl-6-(oxan-4-yl)-5,6,7,8-tetrahydrocarbazol-3-yl]-(4-hydroxy-1-piperidyl)methanone] had a Ki in experiment [1] of 0.155 µM. In experiment [2], this molecule came in with a 50% effective concentration (EC50) of 0.352 µM and an Emax of 107%.
